Experimental data from publication PMC7064328 (Environmental Health Perspectives, 2020).

System: maternal liver
Test: Maternal liver histopathology (H&E)
Type: in vivo, mouse (CD-1)
Conditions: for CA, any severity: % / CA, any severity: N / CA, marked: % / CA, marked: N / CA, minimal to mild: % / CA, minimal to mild: N / CA, moderate: % / CA, moderate: N / Focal regions of classic necrosis: % / Focal regions of classic necrosis: N / Increase in cell death: % / Increase in cell death: N / Increase in mitotic figures: % / Increase in mitotic figures: N / Vacuolation, any severity: % / Vacuolation, any severity: N / Vacuolation, mild: % / Vacuolation, mild: N / Vacuolation, minimal: % / Vacuolation, minimal: N / Vacuolation, moderate: % / Vacuolation, moderate: N: maternal liver
From the text: From each uterus, first, viable embryos and their matched placentas were collected in succession within a horn and immediately snap frozen ( n=2–5 per litter ), and subsequent embryos were collected for growth measurements ( n=2–11 per litter ). Additional placentas were collected and placed in 4% paraformaldehyde (PFA) for histological analysis (Block 2 only). Amniotic fluid was collected by needle aspiration from litters euthanized at E11.5 and snap frozen in liquid nitrogen. Embryo livers were collected from litters euthanized at E17.5 and snap frozen in liquid nitrogen. Dam livers were weighed, a portion of the left lateral lobe was placed in 4% PFA for histology, and another portion of the same lobe was snap frozen in liquid nitrogen. A third liver section was obtained from Block 2 dams and fixed in McDowell and Trump’s fixative for electron microscopy (EM). Gross lesions were collected when observed and placed in 4% PFA for histology. Dam kidneys were removed, a cross section was prepared from the right kidney, a longitudinal section was prepared from the left kidney, and both sections were fixed in 4% PFA for histological analysis.
Dam livers, kidneys, and placentas were trimmed and embedded by the NIEHS Mouse Embryo Phenotyping Core. Tissues collected at necropsy were fixed in 4% PFA for 72 h and paraffin embedded, and 5-μm sections were prepared and stained with hematoxylin and eosin (H&E). Pathology was evaluated and a pathology review conducted by S.A.E. Diplomate American College of Veterinary Pathologists (DACVP). Pathology reviews were conducted as an informed approach analysis [e.g., nonblinded analysis; see Sills et al. ([2019])]. Select tissue slides were scanned using the AT2 Scanner (Aperio). Images were then captured for publication using the ImageScope software; version 12.3.0.5056 (Aperio). Serum and urine obtained from dams in Block 2 were analyzed using the AU480 clinical chemistry analyzer (Beckman Coulter Inc.). Reagents and calibration standards used to measure alkaline phosphatase (ALP), alanine aminotransferase (ALT), aspartate aminotransferase (AST), blood urea nitrogen (BUN), serum creatinine, urine creatinine, glucose (Glu), total protein (TP), triglyceride (Trig), high-density lipoprotein (HDL), cholesterol (Chol), and albumin (ALB) were purchased from Beckman Coulter Inc. Reagents for sorbitol dehydrogenase (SDH), total bile acid (TBA), and micro-TP were purchased from Sekisui Diagnostics. The reagent used to measure low-density lipoprotein (LDL) was purchased form Diazyme Laboratories.

O=C(O)C(F)(F)C(F)(F)C(F)(F)C(F)(F)C(F)(F)C(F)(F)C(F)(F)F [PFOA, Perfluorooctanoic acid]
Incidence of livers with adverse outcomes including cytoplasmic alteration (all dose groups, E11.5 and E17.5): 100% | CA, any severity: % (E11.5, 1 mg/kg/d): 100% | CA, any severity: N (E11.5, 1 mg/kg/d): 5 | CA, marked: % (E11.5, 1 mg/kg/d): 0% | CA, marked: N (E11.5, 1 mg/kg/d): 0 | CA, minimal to mild: % (E11.5, 1 mg/kg/d): 100% | CA, minimal to mild: N (E11.5, 1 mg/kg/d): 5 | CA, moderate: % (E11.5, 1 mg/kg/d): 0% | CA, moderate: N (E11.5, 1 mg/kg/d): 0 | Focal regions of classic necrosis: % (E11.5, 1 mg/kg/d): 0% | Focal regions of classic necrosis: N (E11.5, 1 mg/kg/d): 0 | Increase in cell death: % (E11.5, 1 mg/kg/d): 20% | Increase in cell death: N (E11.5, 1 mg/kg/d): 1 | Increase in mitotic figures: % (E11.5, 1 mg/kg/d): 40% | Increase in mitotic figures: N (E11.5, 1 mg/kg/d): 2 | Vacuolation, any severity: % (E11.5, 1 mg/kg/d): 0% | Vacuolation, any severity: N (E11.5, 1 mg/kg/d): 0 | Vacuolation, mild: % (E11.5, 1 mg/kg/d): 0% | Vacuolation, mild: N (E11.5, 1 mg/kg/d): 0 | Vacuolation, minimal: % (E11.5, 1 mg/kg/d): 0% | Vacuolation, minimal: N (E11.5, 1 mg/kg/d): 0 | Vacuolation, moderate: % (E11.5, 1 mg/kg/d): 0% | Vacuolation, moderate: N (E11.5, 1 mg/kg/d): 0 | CA, any severity: % (E11.5, 5 mg/kg/d): 100% | CA, any severity: N (E11.5, 5 mg/kg/d): 5 | CA, marked: % (E11.5, 5 mg/kg/d): 100% | CA, marked: N (E11.5, 5 mg/kg/d): 5 | CA, minimal to mild: % (E11.5, 5 mg/kg/d): 0% | CA, minimal to mild: N (E11.5, 5 mg/kg/d): 0 | CA, moderate: % (E11.5, 5 mg/kg/d): 0% | CA, moderate: N (E11.5, 5 mg/kg/d): 0 | Focal regions of classic necrosis: % (E11.5, 5 mg/kg/d): 40% | Focal regions of classic necrosis: N (E11.5, 5 mg/kg/d): 2 | Increase in cell death: % (E11.5, 5 mg/kg/d): 60% | Increase in cell death: N (E11.5, 5 mg/kg/d): 3 | Increase in mitotic figures: % (E11.5, 5 mg/kg/d): 100% | Increase in mitotic figures: N (E11.5, 5 mg/kg/d): 5 | Vacuolation, any severity: % (E11.5, 5 mg/kg/d): 100% | Vacuolation, any severity: N (E11.5, 5 mg/kg/d): 5 | Vacuolation, mild: % (E11.5, 5 mg/kg/d): 100% | Vacuolation, mild: N (E11.5, 5 mg/kg/d): 5 | Vacuolation, minimal: % (E11.5, 5 mg/kg/d): 0% | Vacuolation, minimal: N (E11.5, 5 mg/kg/d): 0 | Vacuolation, moderate: % (E11.5, 5 mg/kg/d): 0% | Vacuolation, moderate: N (E11.5, 5 mg/kg/d): 0 | CA, any severity: % (E17.5, 1 mg/kg/d): 100% | CA, any severity: N (E17.5, 1 mg/kg/d): 5 | CA, marked: % (E17.5, 1 mg/kg/d): 0% | CA, marked: N (E17.5, 1 mg/kg/d): 0 | CA, minimal to mild: % (E17.5, 1 mg/kg/d): 0% | CA, minimal to mild: N (E17.5, 1 mg/kg/d): 0 | CA, moderate: % (E17.5, 1 mg/kg/d): 100% | CA, moderate: N (E17.5, 1 mg/kg/d): 5 | Focal regions of classic necrosis: % (E17.5, 1 mg/kg/d): 0% | Focal regions of classic necrosis: N (E17.5, 1 mg/kg/d): 0 | Increase in cell death: % (E17.5, 1 mg/kg/d): 100% | Increase in cell death: N (E17.5, 1 mg/kg/d): 5 | Increase in mitotic figures: % (E17.5, 1 mg/kg/d): 0% | Increase in mitotic figures: N (E17.5, 1 mg/kg/d): 0 | Vacuolation, any severity: % (E17.5, 1 mg/kg/d): 0% | Vacuolation, any severity: N (E17.5, 1 mg/kg/d): 0 | Vacuolation, mild: % (E17.5, 1 mg/kg/d): 0% | Vacuolation, mild: N (E17.5, 1 mg/kg/d): 0 | Vacuolation, minimal: % (E17.5, 1 mg/kg/d): 0% | Vacuolation, minimal: N (E17.5, 1 mg/kg/d): 0 | Vacuolation, moderate: % (E17.5, 1 mg/kg/d): 0% | Vacuolation, moderate: N (E17.5, 1 mg/kg/d): 0 | CA, any severity: % (E17.5, 5 mg/kg/d): 100% | CA, any severity: N (E17.5, 5 mg/kg/d): 6 | CA, marked: % (E17.5, 5 mg/kg/d): 100% | CA, marked: N (E17.5, 5 mg/kg/d): 6 | CA, minimal to mild: % (E17.5, 5 mg/kg/d): 0% | CA, minimal to mild: N (E17.5, 5 mg/kg/d): 0 | CA, moderate: % (E17.5, 5 mg/kg/d): 0% | CA, moderate: N (E17.5, 5 mg/kg/d): 0 | Focal regions of classic necrosis: % (E17.5, 5 mg/kg/d): 0% | Focal regions of classic necrosis: N (E17.5, 5 mg/kg/d): 0 | Increase in cell death: % (E17.5, 5 mg/kg/d): 100% | Increase in cell death: N (E17.5, 5 mg/kg/d): 6 | Increase in mitotic figures: % (E17.5, 5 mg/kg/d): 0% | Increase in mitotic figures: N (E17.5, 5 mg/kg/d): 0 | Vacuolation, any severity: % (E17.5, 5 mg/kg/d): 100% | Vacuolation, any severity: N (E17.5, 5 mg/kg/d): 6 | Vacuolation, mild: % (E17.5, 5 mg/kg/d): 0% | Vacuolation, mild: N (E17.5, 5 mg/kg/d): 0 | Vacuolation, minimal: % (E17.5, 5 mg/kg/d): 0% | Vacuolation, minimal: N (E17.5, 5 mg/kg/d): 0 | Vacuolation, moderate: % (E17.5, 5 mg/kg/d): 100% | Vacuolation, moderate: N (E17.5, 5 mg/kg/d): 6
